Source: patent US9920032B2, “Heterocyclic compounds useful as pim kinase inhibitors” (Incyte Corporation, priority 2015, dated 2018)

Columns and labels:
Format in all cases: biochemical
[1] = target: Pim-3 (Homo sapiens (Human), UniProt Q86V86); assay: Pim-3 kinase assay; details: 1 mM ATP; read-out: PIM3 IC50
Procedure: (§1) Pim-1 and Pim-3 kinase assays—20 μL reactions were run in white 384 well polystyrene plates dotted with 0.8 μL compound/DMSO in the assay buffer (50 mM Tris, pH 7.5, 0.01% Tween-20, 5 mM mgCl2, 0.01% BSA, 5 mM DTT), containing 0.05 μM Biotin-labeled BAD peptide substrate (AnaSpec 62269), 1 mM ATP, and 2.5 pM (Pim-1, Invitrogen PV3503) or 1.25 pM (Pim-3, Millipore 14-738) enzyme for 1 h at 25° C. Reactions were stopped by addition of 10 μL STOP Buffer (150 mM Tris, pH=7.5, 150 mM NaCl, 75 mM EDTA, 0.01% Tween-20, 0.3% BSA,) supplemented with Phospho-Bad (Ser112) Antibody (Cell Signaling 9291) diluted 666-fold, and Streptavidin donor beads (PerkinElmer 6760002) along with Protein-A acceptor beads (PerkinElmer 6760137) at […]. Supplementation of the STOP buffer with beads and stopping the reactions were done under reduced light. Prior to the stopping reactions STOP buffer with beads was preincubated for 1 h in the dark at room temperature. After stopping the reactions, plates were incubated for 1 h in the dark at room temperature before reading on a PHERAstar FS plate reader (BMG Labtech) under reduced light.

[2] = target: Pim-1 (Homo sapiens (Human), UniProt P11309); assay: Pim-1 kinase assay; details: 1 mM ATP; read-out: PIM1 IC50
Procedure: as §1

[3] = target: Pim-2 (Homo sapiens (Human), UniProt Q9P1W9); assay: Pim-2 kinase assay; details: 1 mM ATP; read-out: PIM2 IC50
Procedure: Pim-2 kinase assay—20 μL reactions were run in white 384 well polystyrene plates dotted with 0.8 μL compound/DMSO in the assay buffer (50 mM Tris, pH 7.5, 0.01% Tween-20, 5 mM mgCl2, 0.01% BSA, 5 mM DTT), containing 0.05 μM Fluorescein-labeled CREBtide peptide substrate (Invitrogen PV3508), 1 mM ATP, and 1 nM enzyme (Invitrogen PV3649) for 2 h at 25° C. Reactions were stopped by addition of 10 μL TR-FRET Dilution Buffer (Invitrogen PV3574) with 30 mM EDTA and 1.5 nM LanthaScreen Tb-CREB pSer133 antibody (Invitrogen PV3566). After 30 min. incubation at room temperature, plates were read on a PHERAstar FS plate reader (BMG Labtech).

Sequence of Pim-2 (Q9P1W9 whole entry): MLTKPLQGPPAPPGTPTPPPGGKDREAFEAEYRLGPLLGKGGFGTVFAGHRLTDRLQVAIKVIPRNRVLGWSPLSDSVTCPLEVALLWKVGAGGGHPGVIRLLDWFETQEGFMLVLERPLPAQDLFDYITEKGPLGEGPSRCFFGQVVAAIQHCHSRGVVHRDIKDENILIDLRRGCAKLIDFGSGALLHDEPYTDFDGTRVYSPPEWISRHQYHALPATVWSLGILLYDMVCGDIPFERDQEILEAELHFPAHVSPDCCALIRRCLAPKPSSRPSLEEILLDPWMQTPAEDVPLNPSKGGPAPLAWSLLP
Sequence of Pim-1 (P11309 whole entry): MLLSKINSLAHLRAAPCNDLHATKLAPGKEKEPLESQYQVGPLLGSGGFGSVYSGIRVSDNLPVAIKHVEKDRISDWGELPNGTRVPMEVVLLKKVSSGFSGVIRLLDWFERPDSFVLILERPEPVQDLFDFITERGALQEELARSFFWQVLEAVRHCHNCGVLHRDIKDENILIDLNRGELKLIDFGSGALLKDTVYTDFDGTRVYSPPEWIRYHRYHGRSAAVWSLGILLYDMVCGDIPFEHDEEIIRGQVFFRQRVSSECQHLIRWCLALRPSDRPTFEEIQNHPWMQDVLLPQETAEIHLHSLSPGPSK

Question: Which results are given for `C[C@@H]1C[C@H](N)C[C@H](c2ccncc2NC(=O)c2ccc(F)c3cc(N(C)C4CCC4)cnc23)C1` [Example 24, N-{4-[(1R,3S,5S)-3-Amino-5-methylcyclohexyl]pyridin-3-yl}-3-[cyclobutyl(methyl)amino]-5-fluoroquinoline-8-carboxamide]?
Answer: IC50 [1]: ≤ 10 nM; IC50 [2]: ≤ 10 nM; IC50 [3]: 100 to 1000 nM

Question: For `C[C@@H]1C[C@H](N)C[C@H](c2ccncc2NC(=O)c2ccc(F)c3cc(N(C)C)cnc23)C1` [Example 25, N-{4-[(1R,3S,5S)-3-Amino-5-methylcyclohexyl]pyridin-3-yl}-3-(dimethylamino)-5-fluoroquinoline-8-carboxamide], which IC50 [1] is on record?
Answer: ≤ 10 nM

Question: What about the IC50 [2] of the same compound?
Answer: ≤ 10 nM

Question: What about the IC50 [3] of the same compound?
Answer: ≤ 100 nM

Question: How did the IC50 [1] turn out when `C[C@@H]1C[C@H](N)C[C@H](c2ccncc2NC(=O)c2ccc(F)c3cc(NCCF)cnc23)C1` [Example 26, N-{4-[(1R,3S,5S)-3-Amino-5-methylcyclohexyl]pyridin-3-yl}-5-fluoro-3-[(2-fluoroethyl)amino]quinoline-8-carboxamide] was run?
Answer: ≤ 10 nM

Question: And the IC50 [2]?
Answer: ≤ 10 nM

Question: And the IC50 [3]?
Answer: ≤ 100 nM

Question: With `C[C@@H]1C[C@H](N)C[C@H](c2ccncc2NC(=O)c2ccc(F)c3cc(NCC(F)F)cnc23)C1` [Example 27, N-{4-[(1R,3S,5S)-3-Amino-5-methylcyclohexyl]pyridin-3-yl}-3-[(2,2-difluoroethyl)amino]-5-fluoroquinoline-8-carboxamide] as the compound, how does the IC50 [1] read?
Answer: ≤ 10 nM

Question: What about the IC50 [2] of the same compound?
Answer: ≤ 10 nM

Question: And the IC50 [3]?
Answer: ≤ 100 nM

Question: How did the IC50 [1] turn out when `C[C@@H]1C[C@H](N)C[C@H](c2ccncc2NC(=O)c2ccc(F)c3cc(N4CCCC(F)(F)C4)cnc23)C1` [Example 28, N-{4-[(1R,3S,5S)-3-Amino-5-methylcyclohexyl]pyridin-3-yl}-3-(3,3-difluoropiperidin-1-yl)-5-fluoroquinoline-8-carboxamide] was run?
Answer: ≤ 10 nM

Question: What about the IC50 [2] of the same compound?
Answer: ≤ 10 nM

Question: And the IC50 [3]?
Answer: ≤ 100 nM

Question: Which IC50 [1] does the source give for `C[C@@H]1C[C@H](N)C[C@H](c2ccncc2NC(=O)c2ccc(F)c3cc(N4CCN(C)CC4)cnc23)C1` [Example 30, N-{4-[(1R,3S,5S)-3-Amino-5-methylcyclohexyl]pyridin-3-yl}-5-fluoro-3-(4-methylpiperazin-1-yl)quinoline-8-carboxamide] here?
Answer: ≤ 10 nM

Question: And the IC50 [2]?
Answer: ≤ 10 nM

Question: And the IC50 [3]?
Answer: 100 to 1000 nM

Question: What does the source list for `C[C@@H]1C[C@H](N)C[C@H](c2ccncc2NC(=O)c2ccc(F)c3cc(C4CCOCC4)cnc23)C1` [Example 31, N-{4-[(1R,3S,5S)-3-Amino-5-methylcyclohexyl]pyridin-3-yl}-5-fluoro-3-(tetrahydro-2H-pyran-4-yl)quinoline-8-carboxamide]?
Answer: IC50 [1]: ≤ 10 nM; IC50 [2]: ≤ 10 nM; IC50 [3]: 100 to 1000 nM

Question: How did the IC50 [1] turn out when `C[C@@H]1C[C@H](N)C[C@H](c2ccncc2NC(=O)c2ccc(F)c3cc(N4CCOC[C@H]4C)cnc23)C1` [Example 32, N-(4-((1R,3S,5S)-3-Amino-5-methylcyclohexyl)pyridin-3-yl)-5-fluoro-3-((R)-3-methylmorpholino)quinoline-8-carboxamide] was run?
Answer: ≤ 10 nM

Question: What about the IC50 [2] of the same compound?
Answer: ≤ 10 nM

Question: And the IC50 [3]?
Answer: ≤ 100 nM

Question: Which results are given for `C[C@@H]1C[C@H](N)C[C@H](c2ccncc2NC(=O)c2ccc(F)c3cc(N4CCOC[C@@H]4C)cnc23)C1` [Example 33, N-(4-((1R,3S,5S)-3-Amino-5-methylcyclohexyl)pyridin-3-yl)-5-fluoro-3-((S)-3-methylmorpholino)quinoline-8-carboxamide]?
Answer: IC50 [1]: ≤ 10 nM; IC50 [2]: ≤ 10 nM; IC50 [3]: ≤ 100 nM

Question: `C[C@@H]1C[C@H](N)C[C@H](c2ccncc2NC(=O)c2ccc(F)c3cc(N4CCC[C@H]4C)cnc23)C1` [Example 34, N-(4-((1R,3S,5S)-3-Amino-5-methylcyclohexyl)pyridin-3-yl)-5-fluoro-3-((R)-2-methylpyrrolidin-1-yl)quinoline-8-carboxamide] was tested. Which IC50 [1] did it give?
Answer: ≤ 10 nM

Question: What about the IC50 [2] of the same compound?
Answer: ≤ 10 nM

Question: What about the IC50 [3] of the same compound?
Answer: ≤ 100 nM

Question: Which IC50 [1] does the source give for `CC1CN(c2cnc3c(C(=O)Nc4cnccc4[C@@H]4C[C@H](C)C[C@H](N)C4)ccc(F)c3c2)C(C)CO1` (stereo partly drawn) [Example 35, N-(4-((1R,3S,5S)-3-Amino-5-methylcyclohexyl)pyridin-3-yl)-3-(2,5-dimethylmorpholino)-5-fluoroquinoline-8-carboxamide] here?
Answer: 10 to 50 nM

Question: And the IC50 [2]?
Answer: ≤ 10 nM

Question: And the IC50 [3]?
Answer: 1000 to 10000 nM

Question: With `CC1CCC(C)N1c1cnc2c(C(=O)Nc3cnccc3[C@@H]3C[C@H](C)C[C@H](N)C3)ccc(F)c2c1` (stereo partly drawn) [Example 36, N-(4-((1R,3S,5S)-3-Amino-5-methylcyclohexyl)pyridin-3-yl)-3-(2,5-dimethylpyrrolidin-1-yl)-5-fluoroquinoline-8-carboxamide] as the compound, how does the IC50 [1] read?
Answer: 10 to 50 nM

Question: What about the IC50 [2] of the same compound?
Answer: ≤ 10 nM

Question: And the IC50 [3]?
Answer: 100 to 1000 nM

Question: Which results are given for `CC1CN(c2cnc3c(C(=O)Nc4cnccc4[C@@H]4C[C@H](C)C[C@H](N)C4)ccc(F)c3c2)CC(C)O1` (stereo partly drawn) [Example 37, N-(4-((1R,3S,5S)-3-Amino-5-methylcyclohexyl)pyridin-3-yl)-3-(2,6-dimethylmorpholino)-5-fluoroquinoline-8-carboxamide]?
Answer: IC50 [1]: 10 to 50 nM; IC50 [2]: ≤ 10 nM; IC50 [3]: 1000 to 10000 nM

Question: For `C[C@@H]1C[C@H](N)C[C@H](c2ccncc2NC(=O)c2ccc(F)c3cc(N4CCO[C@@H](C)C4)cnc23)C1` [Example 38, N-(4-((1R,3S,5S)-3-Amino-5-methylcyclohexyl)pyridin-3-yl)-5-fluoro-3-((S)-2-methylmorpholino)quinoline-8-carboxamide], which IC50 [1] is on record?
Answer: 10 to 50 nM

Question: And the IC50 [2]?
Answer: ≤ 10 nM

Question: And the IC50 [3]?
Answer: 100 to 1000 nM

Question: How did the IC50 [1] turn out when `C[C@@H]1C[C@H](N)C[C@H](c2ccncc2NC(=O)c2ccc(F)c3cc(N4CCC[C@@H]4C)cnc23)C1` [Example 39, N-(4-((1R,3S,5S)-3-Amino-5-methylcyclohexyl)pyridin-3-yl)-5-fluoro-3-((S)-2-methylpyrrolidin-1-yl)quinoline-8-carboxamide] was run?
Answer: 10 to 50 nM

Question: What about the IC50 [2] of the same compound?
Answer: ≤ 10 nM

Question: What about the IC50 [3] of the same compound?
Answer: ≤ 100 nM

Question: Which IC50 [1] does the source give for `C[C@@H]1C[C@H](N)C[C@H](c2ccncc2NC(=O)c2ccc(F)c3cc(N4CCC(F)(F)CC4)cnc23)C1` [Example 40, N-(4-((1R,3S,5S)-3-Amino-5-methylcyclohexyl)pyridin-3-yl)-3-(4,4-difluoropiperidin-1-yl)-5-fluoroquinoline-8-carboxamide] here?
Answer: ≤ 10 nM

Question: And the IC50 [2]?
Answer: ≤ 10 nM

Question: And the IC50 [3]?
Answer: 100 to 1000 nM

Question: With `C[C@@H]1C[C@H](N)C[C@H](c2ccncc2NC(=O)c2ccc(F)c3cc(N4CCC(C)(O)CC4)cnc23)C1` [Example 41, N-(4-((1R,3S,5S)-3-Amino-5-methylcyclohexyl)pyridin-3-yl)-5-fluoro-3-(4-hydroxy-4-methylpiperidin-1-yl)quinoline-8-carboxamide] as the compound, how does the IC50 [1] read?
Answer: 10 to 50 nM

Question: And the IC50 [2]?
Answer: 10 to 50 nM

Question: What about the IC50 [3] of the same compound?
Answer: 100 to 1000 nM

Question: With `C[C@@H]1C[C@H](N)C[C@H](c2ccncc2NC(=O)c2ccc(F)c3cc(N(C)CC(F)F)cnc23)C1` [Example 42, N-(4-((1R,3S,5S)-3-Amino-5-methylcyclohexyl)pyridin-3-yl)-3-((2,2-difluoroethyl)(methyl)amino)-5-fluoroquinoline-8-carboxamide] as the compound, how does the IC50 [1] read?
Answer: ≤ 10 nM

Question: What about the IC50 [2] of the same compound?
Answer: ≤ 10 nM

Question: And the IC50 [3]?
Answer: ≤ 100 nM

Question: How did the IC50 [1] turn out when `CC1CCCCN1c1cnc2c(C(=O)Nc3cnccc3[C@@H]3C[C@H](C)C[C@H](N)C3)ccc(F)c2c1` (stereo partly drawn) [Example 43, N-(4-((1R,3S,5S)-3-Amino-5-methylcyclohexyl)pyridin-3-yl)-5-fluoro-3-(2-methylpiperidin-1-yl)quinoline-8-carboxamide] was run?
Answer: ≤ 10 nM

Question: What about the IC50 [2] of the same compound?
Answer: ≤ 10 nM

Question: And the IC50 [3]?
Answer: ≤ 100 nM

Question: How did the IC50 [1] turn out when `C[C@@H]1C[C@H](N)C[C@H](c2ccncc2NC(=O)c2ccc(F)c3cc(N4CCC(O)CC4)cnc23)C1` [Example 44, N-(4-((1R,3S,5S)-3-Amino-5-methylcyclohexyl)pyridin-3-yl)-5-fluoro-3-(4-hydroxypiperidin-1-yl)quinoline-8-carboxamide] was run?
Answer: ≤ 10 nM

Question: What about the IC50 [2] of the same compound?
Answer: ≤ 10 nM

Question: And the IC50 [3]?
Answer: 100 to 1000 nM

Question: How did the IC50 [1] turn out when `C[C@@H]1C[C@H](N)C[C@H](c2ccncc2NC(=O)c2ccc(F)c3cc(N4CCC(C#N)CC4)cnc23)C1` [Example 45, N-(4-((1R,3S,5S)-3-Amino-5-methylcyclohexyl)pyridin-3-yl)-3-(4-cyanopiperidin-1-yl)-5-fluoroquinoline-8-carboxamide] was run?
Answer: 10 to 50 nM

Question: What about the IC50 [2] of the same compound?
Answer: ≤ 10 nM

Question: And the IC50 [3]?
Answer: 100 to 1000 nM

Question: How did the IC50 [1] turn out when `CC1CCN(c2cnc3c(C(=O)Nc4cnccc4[C@@H]4C[C@H](C)C[C@H](N)C4)ccc(F)c3c2)CC1` [Example 46, N-(4-((1R,3S,5S)-3-Amino-5-methylcyclohexyl)pyridin-3-yl)-5-fluoro-3-(4-methylpiperidin-1-yl)quinoline-8-carboxamide] was run?
Answer: ≤ 10 nM

Question: And the IC50 [2]?
Answer: ≤ 10 nM

Question: And the IC50 [3]?
Answer: 100 to 1000 nM
